Where no end group is shown, it is not given here. [ ]: non-standard residue; d: D form. Cit = NC(=O)NCCC[C@H](N)C(=O)O
Test system: TCR specific for the citrullinated fibrinogen peptide
Test: activation of 58−/− T cell line expressing cit-fib specific TCR by peptide-loaded HLA-DRB1*04:01 monomers (NFAT-GFP reporter, PD1 expression)
Format: cell-based, human
Settings: peptide presented on HLA-DRB1*04:01, 48 h; for TCR-dependent NFAT mediated activation of T cells: GFP reporter, FIG. 3; for TCR-dependent PD1 expression: anti-mouse PD-1 staining, FIG. 4
Protocol: 58−/− cell line expressing cit-fib specific TCRs in ametrine expressing vector, along with co-expression of human CD4 and GFP as a reporter for NFAT expression.
HLA-DRB1*04:01 monomeric protein (500 μg/mL) was incubated for 72 h at 37° C. with different versions of fib69-81 peptide (test) and VimX71 peptide (control) in sodium phosphate buffer (1×) containing n-octyl β-D-Glucopyranoside (Sigma-Aldrich, USA) and Pefabloc SC (Sigma-Aldrich, USA), and then stored at 4° C. until used. Loaded HLA monomers were subsequently coated (0.03-2 μg/well) onto 48-well plates in 100 μl PBS for 4 h at 37° C. The HLA/peptide solution was subsequently flicked of the plate and specific T cells (5×104) and anti-CD28 (1 μg/well) were added to the monomer-coated wells and incubated for 48 h at 37° C. before collecting cells.
As positive controls, anti-mouse anti-CD3 (BioLegend #100314), anti-CD28 (BioLegend #101112) were used.
PD1 expression on 58−/− cells was assessed using anti-mouse PD-1 PE-Cy7 antibody, while NFAT activation was studied using assessment of GFP expression following cell stimulation. Human CD4+ametrine+ viable singlets were used as population to look for expression of NFAT and PD1.

Sequence	TCR-dependent NFAT mediated activation of T cells	TCR-dependent PD1 expression
GGFRAQPAKAAAT [FibF71Q74, fibrinogen 69-81 mimic, glutamine in position 74 and phenylalanine in position 71]	equally capable of triggering T cell activation as the original citrullinated peptide	equally capable of triggering T cell activation as the original citrullinated peptide
GGFRAXPAKAAAT (GGFRA[Cit]PAKAAAT; ends and bridges not checked) [FibF71X74]	equally capable of triggering T cell activation as the original citrullinated peptide	equally capable of triggering T cell activation as the original citrullinated peptide
GGYRAQPAKAAAT [FibQ74, fibrinogen 69-81 mimic, a glutamine in position 74]	equally capable of triggering T cell activation as the original citrullinated peptide	equally capable of triggering T cell activation as the original citrullinated peptide

Reference: patent publication US20250340616A1, “NOVEL PEPTIDE MIMICS AND THEIR USE” (STIFTELSEN VECTIS, priority 2021, published 2025)
